Values quoted from earlier work, collected in US20250049835A1, “COMPOSITIONS FOR ALTERING CYCLIC ADP-RIBOSE SECONDARY MESSENGER SIGNALLING” (Yeda Research and Development Co. Ltd., priority 2022, published 2025).

Target: T1, Bacillus cereus MSX-D12 ThsA enzyme (Bacillus cereus, UniProt J8G6Z1)
T1 construct: The reporter enzyme ThsA was expressed and purified as described previously; made in house
T1 sequence (J8G6Z1 1-476): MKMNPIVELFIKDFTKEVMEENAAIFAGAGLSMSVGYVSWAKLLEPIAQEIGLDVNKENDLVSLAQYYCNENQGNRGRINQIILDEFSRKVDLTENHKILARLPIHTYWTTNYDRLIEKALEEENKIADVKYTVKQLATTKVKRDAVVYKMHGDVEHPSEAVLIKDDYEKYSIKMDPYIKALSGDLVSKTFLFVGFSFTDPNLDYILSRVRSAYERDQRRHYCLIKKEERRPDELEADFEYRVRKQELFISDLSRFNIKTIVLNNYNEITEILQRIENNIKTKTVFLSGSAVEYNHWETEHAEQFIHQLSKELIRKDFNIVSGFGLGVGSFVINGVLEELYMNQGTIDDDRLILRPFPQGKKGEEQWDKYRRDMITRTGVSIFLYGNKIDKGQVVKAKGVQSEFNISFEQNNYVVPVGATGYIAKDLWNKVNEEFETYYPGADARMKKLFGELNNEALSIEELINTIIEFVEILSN
Conditions: previously shown

SMILES: Nc1ncnc2c1ncn2[C@@H]1O[C@@H]2COP(=O)(O)OP(=O)(O)OC[C@H]3O[C@@H](OC1C2O)C(O)C3O (stereo partly shown) [1′-2′ gcADPR]
- Activation of ThsA by cADPR isomer produced by plant TIR proteins: can activate the Theoris effector ThsA
